Assay results taken from the NIST ThermoML archive (doi:10.1016/j.tca.2012.09.009).

Test: osmotic coefficient (dimensionless); mn = molality of the nth substance listed, in mol/kg
Details: 323.15 K, 101 kPa, Liquid, isopiestic method

CCCC[n+]1cccc(C)c1.O=S(=O)([N-]S(=O)(=O)C(F)(F)F)C(F)(F)F + CCCO
Details | osmotic coefficient
m1 = 0.0318 | 0.917
m1 = 0.0485 | 0.78
m1 = 0.0788 | 0.72
m1 = 0.2157 | 0.571
m1 = 0.3181 | 0.487
m1 = 0.417 | 0.44
m1 = 0.527 | 0.389
m1 = 0.8342 | 0.324
m1 = 1.24 | 0.274
m1 = 1.63 | 0.229
m1 = 2.053 | 0.203
m1 = 2.439 | 0.191
m1 = 2.768 | 0.182
m1 = 3.304 | 0.174

CCC[n+]1cccc(C)c1.O=S(=O)([N-]S(=O)(=O)C(F)(F)F)C(F)(F)F + CC(C)O
Details | osmotic coefficient
m1 = 0.0497 | 0.974
m1 = 0.0805 | 0.806
m1 = 0.1081 | 0.756
m1 = 0.1987 | 0.632
m1 = 0.2986 | 0.508
m1 = 0.41 | 0.415
m1 = 0.5278 | 0.379
m1 = 0.8355 | 0.334
m1 = 1.221 | 0.281
m1 = 1.623 | 0.24
m1 = 2.072 | 0.217
m1 = 2.437 | 0.206
m1 = 2.828 | 0.191
m1 = 3.326 | 0.184

CCCC[n+]1cccc(C)c1.O=S(=O)([N-]S(=O)(=O)C(F)(F)F)C(F)(F)F + CC(C)O
Details | osmotic coefficient
m1 = 0.0504 | 0.909
m1 = 0.0795 | 0.805
m1 = 0.0981 | 0.729
m1 = 0.2086 | 0.596
m1 = 0.2979 | 0.536
m1 = 0.3949 | 0.498
m1 = 0.4981 | 0.454
m1 = 0.7859 | 0.384
m1 = 1.188 | 0.321
m1 = 1.583 | 0.266
m1 = 1.975 | 0.244
m1 = 2.381 | 0.233
m1 = 2.763 | 0.234
m1 = 3.323 | 0.225

CCCC[n+]1cccc(C)c1.O=S(=O)([N-]S(=O)(=O)C(F)(F)F)C(F)(F)F + CCCCO
Details | osmotic coefficient
m1 = 0.0539 | 0.692
m1 = 0.082 | 0.581
m1 = 0.1023 | 0.508
m1 = 0.1892 | 0.403
m1 = 0.3045 | 0.305
m1 = 0.4112 | 0.259
m1 = 0.5115 | 0.238
m1 = 0.8265 | 0.203
m1 = 1.232 | 0.179
m1 = 1.58 | 0.155
m1 = 2.087 | 0.132
m1 = 2.466 | 0.12
m1 = 2.878 | 0.112
m1 = 3.434 | 0.102

CC[n+]1cccc(C)c1.O=S(=O)([N-]S(=O)(=O)C(F)(F)F)C(F)(F)F + CC(C)O
Details | osmotic coefficient
m1 = 0.049 | 0.951
m1 = 0.0748 | 0.834
m1 = 0.0982 | 0.752
m1 = 0.2129 | 0.605
m1 = 0.3058 | 0.529
m1 = 0.404 | 0.464
m1 = 0.5051 | 0.428
m1 = 0.8164 | 0.335
m1 = 1.211 | 0.274
m1 = 1.625 | 0.233
m1 = 2.011 | 0.21
m1 = 2.415 | 0.19
m1 = 2.847 | 0.176
m1 = 3.335 | 0.174

CC[n+]1cccc(C)c1.O=S(=O)([N-]S(=O)(=O)C(F)(F)F)C(F)(F)F + CCCO
Details | osmotic coefficient
m1 = 0.0291 | 0.924
m1 = 0.0485 | 0.788
m1 = 0.0836 | 0.704
m1 = 0.104 | 0.68
m1 = 0.2111 | 0.57
m1 = 0.3124 | 0.496
m1 = 0.4076 | 0.411
m1 = 0.5148 | 0.354
m1 = 0.8269 | 0.297
m1 = 1.23 | 0.237
m1 = 1.577 | 0.211
m1 = 2.059 | 0.18
m1 = 2.455 | 0.161
m1 = 2.8 | 0.15

CCCC[n+]1cccc(C)c1.O=S(=O)([N-]S(=O)(=O)C(F)(F)F)C(F)(F)F + CCC(C)O
Details | osmotic coefficient
m1 = 0.0527 | 0.735
m1 = 0.0838 | 0.623
m1 = 0.1035 | 0.581
m1 = 0.2136 | 0.45
m1 = 0.3113 | 0.379
m1 = 0.411 | 0.337
m1 = 0.5068 | 0.292
m1 = 0.7963 | 0.235
m1 = 1.217 | 0.195
m1 = 1.576 | 0.171
m1 = 2.032 | 0.149
m1 = 2.408 | 0.135
m1 = 2.799 | 0.126
m1 = 3.261 | 0.119

CCC[n+]1cccc(C)c1.O=S(=O)([N-]S(=O)(=O)C(F)(F)F)C(F)(F)F + CCCO
Details | osmotic coefficient
m1 = 0.0279 | 0.943
m1 = 0.0456 | 0.826
m1 = 0.0782 | 0.699
m1 = 0.0966 | 0.651
m1 = 0.2052 | 0.553
m1 = 0.2936 | 0.504
m1 = 0.3902 | 0.435
m1 = 0.5073 | 0.363
m1 = 0.8376 | 0.294
m1 = 1.261 | 0.242
m1 = 1.656 | 0.217
m1 = 2.045 | 0.196
m1 = 2.425 | 0.175
m1 = 2.825 | 0.165
m1 = 3.31 | 0.159
